# Patent US20100184819A1, “METHOD FOR REDUCING INTRACRANIAL PRESSURE” (priority 2007, published 2010)
# Key:
# aquaporin 4 (AQP-4) = assay: Perivascular AQP-4 immunostaining (electron microscopy) after diffuse traumatic brain injury; type: in vivo; settings: rat diffuse TBI, intravenous injection at 30 min after injury, 5 h after injury
# Description: We decided to study the water channels associated with the cerebral vasculature, and in particular aquaporin 4 (AQP-4), in order to see whether there were any changes in the expression of these channels. For these studies, a rat model was used, and raised ICP was induced by diffuse traumatic brain injury. In this model, a traumatic brain injury was induced using the impact-acceleration model. Briefly, the impact-acceleration device delivers an accelerating blow centrally on to the dorsal surface of the skull of halothane anesthetized male Sprague-Dawley rats (380-420 g). The point of impact was protected with a stainless steel disc to prevent skull fracture, while the head was subsequently decelerated using either a foam or gel filled cushion. For severe injury, the 450 g brass weight is dropped from a height of 2 metres. The impact results in extensive, diffuse neuropathological damage throughout the brain with associated neurological deficits. Immunohistochemical labelling was used to investigate the expression of aquaporin-4 (FIG. 1). Briefly, electron microscopy of AQP-4 used a rabbit polyclonal antibody (Alpha Diagnostic International, Inc., San Antonio) as the primary antibody, with immunolabelling completed using biotinylated secondary antibody (goat anti-rabbit IgG) and streptavidin-peroxidase complex (Rockland, Gilbertsville, Pa.). […]
# [1] = test system: blood brain barrier permeability after injury; assay: Attenuation of blood brain barrier permeability after injury (dose finding); type: in vivo, rat; settings: intravenous, 30 min after induction of injury
# Protocol: N-acetyl-tryptophan was dissolved in sterile, normal saline, and administered by intravenous injection at 30 min after induction of injury. […] The optimal dose, based on the ability of the drug to attenuate blood brain barrier permeability after injury, was 2.5 mg/kg.
# [2] = test system: rat model of traumatic brain injury; assay: Diffusion weighted imaging of cerebral oedema after severe diffuse traumatic brain injury; type: in vivo; settings: severe diffuse TBI, treatment 30 min after insult, 10^-5 mol/kg, imaged 5 h after injury
# Description: After a traumatic injury (left-hand panel), areas of hyperintensity reflect an increased ADC, which at this early time point is indicative of vasogenic edema.
# In order to observe whether a substance P receptor antagonist could facilitate the movement of water out of the brain, we carried out nuclear magnetic resonance spectroscopy (NMR) studies using a rat model of traumatic brain injury. Diffusion-weighted NMR images were generated following trauma (FIG. 2, left-hand panel).
# Following injury, a number of “brighter” areas are clearly visible within the brain. These “bright” areas correlate with regions where extracellular water is gathering within the brain.
# [3] = test system: sheep model of diffuse traumatic brain injury; assay: Intracranial pressure in the sheep model of diffuse traumatic brain injury; type: in vivo; settings: administered at 30 min after injury
# Protocol: Following traumatic injury, intracranial pressure was measured in the sheep using a standard neurosurgical “bolt” and pressure transducer (FIG. 3).
# (§1) Briefly, 2-year-old male Merino sheep were impacted in the left temporal region by a humane stunner. Sheep were continuously anesthetized and ventilated using 2.5% isoflurane in oxygen (4 L/min). Animals were then placed into a prone sphinx position, and restrained to the table, leaving the neck and head mobile relative to the body. Impact injury was induced at the midpoint between the left supraorbital process and the left external auditory meatus using a Captive humane bolt stunner armed with a number 7 red charge (model KML, Karl Schermer & Co., Germany). The injury produced by this method has been fully characterised, and mimics that seen in human TBI victims. (Lewis, S. B., Finnie, J. W., Blumbergs, P. C., Scott, G., Manavis, J. Brown, C., Reilly, P. L., Jones, N. R., McLean, A. J. (1996) A head impact model of early axonal injury in the sheep. J Neurotrauma 13, 505-514.)
# After injury, animals were stabilised and the heads restrained to the operating table to facilitate insertion of intracranial pressure (ICP) and brain tissue oxygenation (PbtO2) probes between 15 and 30 min after trauma. Following exposure of the skull, a 5.8 mm burr hole was performed at a point 4 cm lateral to the sagittal midline on the ipsilateral side, the dura matter opened and a calibrated Codman Microsensor ICP transducer inserted such that the tip of the sensor was 1.5 cm into the parenchyma of the left parietal lobe. The probe was attached to a Codman ICP Express monitoring system (Codman and Shurtleff Inc., USA) for digital recording.
# [4] = test system: sheep model of diffuse traumatic brain injury; assay: Brain tissue oxygenation (PbtO2) in the sheep model of diffuse traumatic brain injury; type: in vivo
# Description: as §1
# The injury was carried out in sheep as previously described. In addition to the burr hole for ICP monitoring, a second burr hole 1 cm lateral to the sagittal midline and over the left fronto-parietal suture allowed insertion of the distal end of a LICOX® PbtO2 probe to a depth of 2 cm. The probe was attached to a LICOX® brain tissue oxygen monitoring system (Integra, USA) for digital recording. After insertion of the probes, both burr holes were sealed using bone wax. ICP and PbtO2 was recorded every 30 min for a period of 4 hours.
# [5] = test system: rat diffuse traumatic brain injury model; assay: ICP after diffuse traumatic brain injury plus hypoxia in the rat; type: in vivo; settings: male Sprague Dawley rats, diffuse TBI + 15 min hypoxia
# Protocol: Male Sprague Dawley rats were injured using a diffuse traumatic brain injury model, and then made hypoxic for a period of 15 minutes, before being ventilated on normal air. ICP was monitored using a Codman ICP pressure sensor for the ensuing 4 hours. After injury, ICP increased from a mean of 4.88±0.12 mm Hg to a mean of 9.23±0.28 mm Hg, an increase of 96%. Treatment with the NK1 antagonist, NAT, reduced ICP by a mean value 21%. […] Male Sprague Dawley rats were injured using the widely accepted diffuse traumatic brain injury model, and then made hypoxic for a period of 15 minutes, before being ventilated on normal air. ICP was monitored using a Codman ICP pressure sensor for the ensuing 4 hours. After injury, ICP increased from a mean of 4.88±0.12 mm Hg to a mean of 9.23±0.28 mm Hg, an increase of 96%. Treatment with the NK1 antagonist, NAT, reduced ICP by a mean value 21% (FIG. 6).
structure (smiles),measurement,setting,value
CC(=O)N[C@@H](Cc1c[nH]c2ccccc12)C(=O)O [N-acetyl-L-tryptophan],expression of aquaporin-4 (perivascular AQP-4 channels),aquaporin 4 (AQP-4),"rise in the expression of aquaporin-4 to, or indeed above, pre-injury levels"
same,expression of aquaporin-4 (perivascular AQP-4 channels),aquaporin 4 (AQP-4); listed as NAT,rapid restoration of AQP-4 channels
same,"optimal dose, based on ability to attenuate blood brain barrier permeability after injury",[1],2.5 mg/kg
same,cerebral oedema (areas of hyperintensity / water gathering) on diffusion-weighted images,[2],no indication of any water gathering in these areas
same,cerebral oedema (areas of hyperintensity / water gathering) on diffusion-weighted images,[2]; listed as NK1 antagonist,clearly reduces areas of hyperintensity
same,effect on intracranial pressure (ICP),[3]; listed as N-Acetyl Tryptophan,Reduces Intracranial Pressure
same,effect on intracranial pressure (ICP),[3]; listed as NK1 antagonist,immediately decrease in ICP
same,time for ICP to return to normal (sham) levels after administration,[3]; listed as NK1 antagonist,3 h
same,effect on intracranial pressure (ICP),[3]; listed as NK1 receptor antagonist,ICP always fell
same,time for ICP to return to normal (sham) levels after administration,[3]; listed as NK receptor antagonist,3 to 4 h
same,time for brain oxygen levels to be back to normal limits,[4]; NK1 receptor antagonist after injury,3 to 4 h
same,effect on brain oxygen levels,"[4]; administered at 30 min after injury, listed as N-Acetyl Tryptophan",Restores Oxygen Levels to Normal
same,effect on brain oxygen levels,"[4]; administered at 30 min after injury, listed as NK1 antagonist",immediate improvement in brain oxygen status
same,effect on brain oxygen levels,"[4]; administered at 30 min after injury, listed as NK1 receptor antagonist",oxygen levels start to rapidly recover
same,time after TBI by which brain oxygen values returned to normal (control) levels,"[4]; administered at 30 min after injury, time after TBI",≤ 4 h
same,functional outcome relative to vehicle treated controls,[5],significant improvement in functional outcome
same,mean reduction of ICP,[5]; ICP monitored 4 hours,21%
